Reference: patent US9605004B2, “Chemical compounds” (SYNGENTA LIMITED, priority 2013, dated 2017)

Assays:
[1] = system: a variety of test species; test: Pre-emergence herbicidal activity (Example 8a, Table 2); format: in vivo; parameters: key: 0 = no damage to plant, 5 = total damage to plant; conditions: application pre-emergence, rate 1000 g/ha, evaluated after 13 days
Outline: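 Damage was rated 13 days after treatment on a 0–5 scale (0 = no damage, 5 = total damage). Pots of seeds in standard soil were sprayed one day after sowing with an aqueous solution from an acetone/water (50:50), 0.5% Tween 20 formulation and kept at 24/16 °C day/night.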

[2] = system: a variety of test species; test: Post-emergence herbicidal activity (Example 8b, Table 3); format: in vivo; conditions: application post-emergence, rate 1000 g/ha, evaluated after 13 days, scale 0-5; for Herbicidal damage score, ABUTH: Abutilon theophrasti; for Herbicidal damage score, ALOMY: Alopecurus myosuroides; for Herbicidal damage score, AMARE: Amaranthus retroflexus; for Herbicidal damage score, ECHCG: Echinochloa crus-galli; for Herbicidal damage score, SETFA: Setaria faberi; for Herbicidal damage score, ZEAMX: Zea mays
Outline: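 Seeds were sown in standard soil and cultivated for 8 days under controlled glasshouse conditions. Seedlings were then sprayed with an aqueous solution of the formulated compound containing 0.5% Tween 20. Injury was rated after a further 13 days, where 5 indicated total damage.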

Compound	Pre-emergence herbicidal activity, damage score ABUTH [1]	Pre-emergence herbicidal activity, damage score ALOMY [1]	Pre-emergence herbicidal activity, damage score AMARE [1]	Pre-emergence herbicidal activity, damage score ECHCG [1]	Pre-emergence herbicidal activity, damage score SETFA [1]	Pre-emergence herbicidal activity, damage score ZEAMX [1]	Herbicidal damage score, ABUTH [2]	Herbicidal damage score, ALOMY [2]	Herbicidal damage score, AMARE [2]	Herbicidal damage score, ECHCG [2]	Herbicidal damage score, SETFA [2]	Herbicidal damage score, ZEAMX [2]
C/C=C\c1cc(N2C(=O)C(Cl)=C(C)C2O)nn1C (stereo not drawn) [Compound B43]	5	2	5	4	4	1	5	4	4	5	5	2
C=C(C)c1cc(N2C(=O)C(Cl)=C(C)C2O)nn1C (stereo not drawn) [Compound B45]	5	4	5	5	5	3	5	5	5	5	5	4
CC(C)=C(C)c1cc(N2C(=O)C(Cl)=C(C)C2O)nn1C (stereo not drawn) [Compound B48]	4	4	5	4	3	1	5	4	5	5	4	1
CCO/C=C\c1cc(N2C(=O)C(Cl)=C(C)C2O)nn1C (stereo not drawn) [Compound B49]	0	0	0	0	0	0	2	0	4	0	3	1
CCn1nc(N2C(=O)C(Cl)=C(C)C2O)cc1C(F)(F)F (stereo not drawn) [Compound C1]	5	4	5	5	4	4	5	5	5	5	4	3
CCn1nc(N2C(=O)C(Cl)=C(C)C2O)cc1C(C)(C)C (stereo not drawn) [Compound C2]	4	4	5	4	5	2	5	5	4	5	5	3
CCn1nc(N2C(=O)C(Cl)=C(C)C2O)c2c1C(C)(C)CC2 (stereo not drawn) [Compound C3]	5	4	5	5	4	2	5	4	5	5	5	4
CC1=C(Cl)C(=O)N(c2cc(C(F)(F)F)n(C(C)C)n2)C1O (stereo not drawn) [Compound C4]	4	3	4	4	4	3	4	4	4	5	4	2
CC1=C(Cl)C(=O)N(c2cc(C(F)(F)F)n(CC(F)(F)F)n2)C1O (stereo not drawn) [Compound C5]	2	3	3	4	4	2	4	5	5	5	5	3
CCn1nc(N2C(=O)C(Cl)=C(C)C2O)cc1C(F)(F)F (stereo not drawn) [Compound C6]	5	4	5	5	4	4	5	5	5	5	4	3
CC1=C(Cl)C(=O)N(c2cc(C(F)(F)F)n(C(C)C)n2)C1O (stereo not drawn) [Compound C7]	4	3	4	4	4	3	4	4	4	5	4	2
CCn1nc(N2C(=O)C(Cl)=C(C)C2O)cc1C(C)(C)C (stereo not drawn) [Compound C8]	4	4	5	4	5	2	5	5	4	5	5	3
